Laboratory results taken from patent publication US10660967B2, “Curcumin conjugates and methods of use thereof” (priority 2016, dated 2020).
Read-outs that look alike come from different tables or passages of the source.

What was measured:
[1] = tested on: Candida albicans (local isolate); test: Antimicrobial MIC, agar dilution; conditions: Candida albicans, read-out: Minimum inhibitory concentration (MIC)
[2] = tested on: Salmonella typhi ATCC19430; test: Antimicrobial MIC, agar dilution; assay type: cell-based; conditions: Salmonella enterica, read-out: Minimum inhibitory concentration (MIC)
[3] = tested on: Staphylococcus aureus ATCC25923; test: Antimicrobial MIC, agar dilution
[4] = tested on: HCT116 (colon) carcinoma cell line; test: Anti-tumor properties, MTT; assay type: cell-based; conditions: Homo sapiens, HCT-116; read-out: IC50 (μM) HCT116 (colon)
How it was run: (§1)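 Cells seeded at 10×10^3 per well for 24 h, then exposed to compound in serum-free medium (final up to 100 μM, 0.5% DMSO vehicle) for 72 h in triplicate. Viability by MTT reduction (4 h, SDS solubilised), absorbance 595 nm/ref 620 nm; IC50 from survival curves.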

[5] = tested on: HepG2 (hepatocellular) carcinoma cell line; test: Anti-tumor properties, MTT; assay type: cell-based; conditions: Homo sapiens, HepG2; read-out: IC50 (μM) HepG2 (liver)
How it was run: as §1

[6] = tested on: MCF7 (breast) carcinoma cell line; test: Anti-tumor properties, MTT; assay type: cell-based; conditions: Homo sapiens, MCF7; read-out: IC50 (μM) MCF7 (breast)
How it was run: as §1

[7] = tested on: lipopolysaccharide-stimulated peritoneal macrophages; test: Production of nitric oxide by lipopolysaccharide-stimulated peritoneal macrophages (Greiss reagent); assay type: cell-based; parameters: Potency (%): % inhibition of nitric oxide production relative to lipopolysaccharide-stimulated macrophages: concentration or dose not given beside the values; conditions: LPS-stimulated peritoneal macrophages; for Nitric oxide (nitrite) concentration, μM (average ± SD): 24 h, nitrite by Greiss reagent
How it was run: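 NO output was quantified as accumulated nitrite, reacting supernatant with Greiss reagent (sulfanilamide/α-naphthylamine) and reading at 532 nm. Beforehand, cells had been incubated 24 h at 37° C. in nitrite-free, 0.1% BSA medium with 0.5–10 ng/ml LPS, with or without catecholamines at […].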

[8] = tested on: PHA-stimulated splenocytes; test: Proliferative response of PHA-stimulated splenocytes (MTT assay); assay type: cell-based; conditions: PHA 5 μg/ml, 72 hr; compounds at 5 μM (method says 10 μM); ratio of O.D. versus vehicle control
How it was run: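 Readout was MTT absorbance (570 nm, reference 690 nm) after 72 h culture at 37° C. Splenocytes at 1×10^6 cells/well received test compound (10 μM final) alone or plus PHA 5 μg/ml as T-cell mitogen. Values are OD ratios of compound over vehicle control (stimulation index).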

[9] = tested on: Pseudomonas aeruginosa ATCC27853; test: Antimicrobial MIC, agar dilution
[10] = tested on: Streptococcus pyogenes ATCC19615; test: Antimicrobial MIC, agar dilution
[11] = tested on: PC3 (prostate) carcinoma cell line; test: Anti-tumor properties, MTT; assay type: cell-based; conditions: Homo sapiens
[12] = tested on: A-549 (lung) carcinoma cell line; test: Anti-tumor properties, MTT; assay type: cell-based; conditions: Homo sapiens, A549
[13] = tested on: gastric mucosa; test: Ulcerogenic liability (ulcer index); assay type: in vivo, albino mice; conditions: orally, three successive days, 10 mg/kg indomethacin mol equivalent
Experimental: The ulcerogenic liability was investigated in albino mice using the standard method. […] The animals were fasted 18 h before drug administration. […] The control group animals were given saline solution only with few drops of Tween 80. […] The gastric mucosa was examined with a magnifying lens (10×) for the presence of lesions and erosions.
1. percentage incidence of ulcer divided by 10;
2. average number of ulcers per stomach; and
3. average severity of ulcers;

[14] = ATCC25923, 18 h, read-out: Minimum inhibitory concentration (MIC)
[15] = ATCC25923, read-out: Minimum inhibitory concentration (MIC)
[16] = ATCC27853, 18 h, read-out: Minimum inhibitory concentration (MIC)
[17] = ATCC27853, read-out: Minimum inhibitory concentration (MIC)
[18] = ATCC19615, 18 h, read-out: Minimum inhibitory concentration (MIC)
[19] = ATCC19615, read-out: Minimum inhibitory concentration (MIC)

Row | Structure (SMILES) | MIC ([1]; 18 h) | MIC [1] | MIC ([2]; 18 h) | MIC [2] | MIC [3, 14] | MIC [3, 15] | IC50 [4] | IC50 [5] | IC50 [6] | Potency (%): % inhibition of nitric oxide production relative to lipopolysaccharide-stimulated macrophages [7] | Nitric oxide (nitrite) concentration, μM (average ± SD) [7] | Stimulation Index (average ± SD) [8] | MIC [9, 16] | MIC [9, 17] | MIC [10, 18] | MIC [10, 19] | IC50 [11] | IC50 [12] | also measured
1 | COc1cc(/C=C/C(=O)CC(=O)/C=C/c2ccc(OC(=O)C(C)NC(=O)OC(C)(C)C)c(OC)c2)ccc1OC(=O)C(C)NC(=O)OC(C)(C)C (racemic) [Boc-DL-Ala-Cur, ((1E,6E)-3,5-dioxohepta-1,6-diene-1,7-diyl)bis(2-methoxy-4,1-phenylene) bis(2-((tert-butoxycarbonyl)amino)propanoate)] | 0.5 µg/mL | 0.703 µM | 0.25 µg/mL | 0.352 µM | 0.25 µg/mL | 0.352 µM | > 100 µM | > 100 µM | 34.8 µM | 30.88% | 18.88 ± 0.46 µM | 1.78 ± 0.07 | 0.25 µg/mL | 0.352 µM | 0.125 µg/mL | 0.176 µM | > 100 µM | 73.9 µM | –
2 | COc1cc(/C=C/C(=O)CC(=O)/C=C/c2ccc(OC(=O)C(C)N)c(OC)c2)ccc1OC(=O)C(C)N.Cl.Cl (racemic) [HCl-DL-Ala-Cur, 1,1′-((((1E,6E)-3,5-dioxohepta-1,6-diene-1,7-diyl)bis(2-methoxy-4,1-phenylene))bis(oxy))bis(1-oxopropan-2-aminium) chloride] | 1 µg/mL | 1.71 µM | 0.25 µg/mL | 0.428 µM | 0.125 µg/mL | 0.214 µM | 66.9 µM | 36.8 µM | 9.79 µM | 27.69% | 19.75 ± 0.97 µM | 1.91 ± 0.15 | 0.5 µg/mL | 0.857 µM | 0.25 µg/mL | 0.428 µM | 21.7 µM | 22.2 µM | –
3 | COc1cc(/C=C/C(=O)CC(=O)/C=C/c2ccc(OC(=O)[C@@H](C)NC(=O)OC(C)(C)C)c(OC)c2)ccc1OC(=O)[C@@H](C)NC(=O)OC(C)(C)C [Boc-D-Ala-Cur, ((1E,6E)-3,5-dioxohepta-1,6-diene-1,7-diyl)bis(2-methoxy-4,1-phenylene) (2R,2′R)-bis(2-((tert-butoxycarbonyl)amino)propanoate)] | 0.5 µg/mL | 0.703 µM | 0.25 µg/mL | 0.352 µM | 0.125 µg/mL | 0.176 µM | > 100 µM | > 100 µM | 29.2 µM | 23.82% | 20.81 ± 0.82 µM | 2.07 ± 0.12 | 0.25 µg/mL | 0.352 µM | 1 µg/mL | 1.41 µM | > 100 µM | 85.4 µM | –
4 | COc1cc(/C=C/C(=O)CC(=O)/C=C/c2ccc(OC(=O)[C@@H](CCSC)NC(=O)OC(C)(C)C)c(OC)c2)ccc1OC(=O)[C@@H](CCSC)NC(=O)OC(C)(C)C [Boc-D-Met-Cur, ((1E,6E)-3,5-dioxohepta-1,6-diene-1,7-diyl)bis(2-methoxy-4,1-phenylene) (2R,2′R)-bis(2-((tert-butoxycarbonyl)amino)-4-(methylthio)butanoate)] | 0.5 µg/mL | 0.602 µM | 1 µg/mL | 1.2 µM | 0.25 µg/mL | 0.301 µM | > 100 µM | > 100 µM | 22.3 µM | – | – | 2.53 ± 0.08 | 0.25 µg/mL | 0.301 µM | 0.125 µg/mL | 0.15 µM | > 100 µM | > 100 µM | % Incidence of ulcer divided by 10 [13]: 0; Average of ulcer number [13]: 0; Average severity of ulcer [13]: 0; Number of animals with ulcer ([13]; 6 animals per group): 0/6; Ulcer index ([13]; sum of the three values): 0
5 | COc1cc(/C=C/C(=O)CC(=O)/C=C/c2ccc(OC(=O)CNC(=O)OC(C)(C)C)c(OC)c2)ccc1OC(=O)CNC(=O)OC(C)(C)C [Boc-Gly-Cur, ((1E,6E)-3,5-dioxohepta-1,6-diene-1,7-diyl)bis(2-methoxy-4,1-phenylene) bis(2-((tert-butoxycarbonyl)amino)acetate)] | 0.5 µg/mL | 0.732 µM | 0.125 µg/mL | 0.183 µM | 0.25 µg/mL | 0.366 µM | > 100 µM | > 100 µM | 17.2 µM | 33.65% | 18.12 ± 1.41 µM | 2.11 ± 0.16 | 0.25 µg/mL | 0.366 µM | 1 µg/mL | 1.47 µM | > 100 µM | 80.9 µM | –
6 | COc1cc(/C=C/C(=O)CC(=O)/C=C/c2ccc(OC(=O)[C@H](C)NC(=O)OC(C)(C)C)c(OC)c2)ccc1OC(=O)[C@H](C)NC(=O)OC(C)(C)C [Boc-L-Ala-Cur, ((1E,6E)-3,5-dioxohepta-1,6-diene-1,7-diyl)bis(2-methoxy-4,1-phenylene) (2S,2′S)-bis(2-((tert-butoxycarbonyl)amino)propanoate)] | 1 µg/mL | 1.41 µM | 0.125 µg/mL | 0.176 µM | 0.125 µg/mL | 0.176 µM | > 100 µM | > 100 µM | 25.1 µM | 22.02% | 21.30 ± 1.72 µM | 2.71 ± 0.28 | 1 µg/mL | 1.41 µM | 0.25 µg/mL | 0.352 µM | > 100 µM | > 100 µM | –
7 | COc1cc(/C=C/C(=O)CC(=O)/C=C/c2ccc(OC(=O)[C@H](CCC(N)=O)NC(=O)OC(C)(C)C)c(OC)c2)ccc1OC(=O)[C@H](CCC(N)=O)NC(=O)OC(C)(C)C [Boc-L-Gln-Cur, ((1E,6E)-3,5-dioxohepta-1,6-diene-1,7-diyl)bis(2-methoxy-4,1-phenylene) (2S,2′S)-bis(5-amino-2-((tert-butoxycarbonyl)amino)-5-oxopentanoate)] | 2 µg/mL | 2.42 µM | 0.125 µg/mL | 0.152 µM | 0.125 µg/mL | 0.152 µM | > 100 µM | 70.6 µM | 8.48 µM | 22.29% | 21.22 ± 1.50 µM | 2.14 ± 0.23 | 1 µg/mL | 1.21 µM | 0.25 µg/mL | 0.303 µM | 39.1 µM | 30.9 µM | –
8 | CC[C@H](C)[C@H](NC(=O)OC(C)(C)C)C(=O)Oc1ccc(/C=C/C(=O)CC(=O)/C=C/c2ccc(OC(=O)[C@@H](NC(=O)OC(C)(C)C)[C@@H](C)CC)c(OC)c2)cc1OC [Boc-L-Ile-Cur, ((1E,6E)-3,5-dioxohepta-1,6-diene-1,7-diyl)bis(2-methoxy-4,1-phenylene) (2S,2′S,3S,3′S)-bis(2-((tert-butoxycarbonyl)amino)-3-methylpentanoate)] | 2 µg/mL | 2.52 µM | 0.125 µg/mL | 0.157 µM | 0.125 µg/mL | 0.157 µM | > 100 µM | > 100 µM | 49.6 µM | 23.82% | 20.81 ± 0.68 µM | 2.07 ± 0.10 | 1 µg/mL | 1.26 µM | 0.25 µg/mL | 0.314 µM | > 100 µM | > 100 µM | –
